In publication PMC11768359, “2-Aminothiophene Derivatives—New Drug Candidates Against Leishmaniasis: Drug Design, Synthesis, Pharmacomodulation, and Antileishmanial Activity” (Pharmaceuticals, 2025):
Where “and” joins values, the source holds several entries; their conditions need not be identical. Identical values can stand only once. Like-named read-outs stand apart in the source and are kept apart here.

Experiments:
[1] = tested on: promastigotes of L. amazonensis; test: Growth inhibition of promastigote forms of L. amazonensis (MTT); assay type: cell-based, Leishmania amazonensis; settings: 72 h, 26 °C
Experimental: (§1) The in vitro tests utilized Leishmania amazonensis parasites (IFLA/BR/67/PH8). These leishmania cell lines were obtained from Oswaldo Cruz Foundation (FIOCRUZ)/Brazil. The promastigote forms were cultivated in Schneider’s insect medium at 26 °C in a biological oxygen demand (BOD) incubator. Schneider’s insect medium was supplemented with 20% fetal bovine serum (FBS) and 1% penicillin (100 U/mL) and streptomycin (µg/mL) (complete Schneider). Next, we differentiated them from promastigote forms by changing the conditions to Schneider’s insect medium supplemented with 5% FBS, pH 4.6, and a temperature of 32 °C to obtain axenic amastigote forms of L. amazonensis. Meanwhile, RAW 264.7 macrophages were cultured in […] cell culture flasks using DMEM medium supplemented with 10% FBS, 1% penicillin 100 U/mL, and 100 μg/mL streptomycin (complete DMEM) and incubated at 37 °C and 5% CO2.
(§2) Parasite growth inhibition was evaluated using the methodology described by Rodrigues et al. (2015). Cultures of logarithmically growing promastigote and axenic amastigote forms (1 × 10^6 parasites/mL) were incubated in 96-well plates containing 100 µL of supplemented Schneider’s medium in triplicate. Serial concentrations of 2-amino-thiophene and 2-amino-selenophene derivatives (10.00–0.156 μM) and the reference drugs meglumine antimoniate (500–40,000 μg/mL), amphoterecinB (0.1–2 μM), and pentamidine (3.12–100 µM) were added. BNP was used as a negative control. The cultures were incubated in a biological oxygen demand oven (model Eletrolab EL202, São Paulo, Brazil) at 26 °C for promastigotes and 32 °C for axenic amastigotes for 72 h. Then, 10 μL of MTT (5 mg/mL) was added to each well to colorimetrically evaluate growth inhibition. The plate was subsequently incubated for a further 4 h, followed by adding 50 μL of 10% sodium dodecyl sulfate solution for […] before the optical density of the culture was read on a microplate spectrophotometer reader. The reading was taken at the test and reference wavelengths of 540 and 620 nm using a microplate spectrophotometer. The negative control consisted of 0.2% […] with BNP, considered to be 100% viable.

[2] = tested on: axenic amastigotes of L. amazonensis; test: Growth inhibition of axenic amastigote forms of L. amazonensis (MTT); assay type: cell-based, Leishmania amazonensis; settings: 72 h, 32 °C
Experimental: as §1, §2

[3] = Cytotoxicity in macrophages (MTT); assay type: cell-based; settings: mouse, RAW 264.7 macrophages
Experimental: as §1
First, 100 μL DMEM medium complete with 1 × 10^6 macrophages (RAW 264.7) was added to each well of a 96-well plate. RAW 264.7 macrophages were obtain from ATCC: code TIB-71^TM. The plate was placed in an incubator (37 °C, 5% CO2) (Sanyo, model COM-15A, Sanyo Electric Co., Osaka, Japan) for 4 h to promote cell adhesion. After this period, two washes were conducted with previously heated DMEM medium (37 °C) to remove non-adhered cells. 2-amino-thiophene and 2-amino-selenophene derivatives were added to wells at serial concentrations of 400 to 25 µM and then incubated for 48 h. Next, 10 μL of MTT at a […] of 5 mg/mL were added to each well and incubated for 4 h. The plate was then shaken for 30 min and read at the test and reference wavelengths of 550 and 620 nm, respectively, in a plate reader. DMEM medium supplemented with 0.5% DMSO was used as a negative control and considered as 100% macrophage viability. The selectivity index for each treatment was calculated as the ratio between the concentration of cytotoxicity of RAW 264.7 macrophages (CC50) and the 50% inhibitory concentration (IC50) or effective concentration (EC50), as measured for the different evolutionary forms of L. amazonensis.

[4] = tested on: promastigotes of L. amazonensis; settings: cited from earlier work
[5] = tested on: axenic amastigotes of L. amazonensis; settings: cited from earlier work
RAW 264.7 macrophages = settings: previously published; cited from earlier work
[6] = L. amazonensis promastigotes, previously published, read-out: IC50 Promastigotes
[7] = L. amazonensis axenic amastigotes, previously published, read-out: IC50 Amastigotes
[8] = L. amazonensis promastigotes, sensitive strain, read-out: IC50 anti-promastigote

Molecule | IC50 ([1]; Leishmania amazonensis) [µM] | IC50 ([2]; Leishmania amazonensis) [µM] | further results
NC(=O)c1ccsc1N [Compound 2] | ≥ 10 | > 10 | IC50 [1]: > 10 µM
CCCC1CCc2c(sc(/N=C/c3c[nH]c4ccc(Br)cc34)c2C#N)C1 (centres unmarked) [Compound 28] | < 10 | > 10 | IC50 [1]: 8.12 µM
N#Cc1ccc2[nH]cc(/C=N/c3[se]c4c(c3C#N)CCCC4)c2c1 [Compound 33] | 9.32 | – | CC50 at 48 h [3]: 203 µM
N#Cc1c(/N=C/c2c[nH]c3ccc(Br)cc23)sc2c1CCCCCCCCCC2 [Compound 26] | – | – | IC50 Promastigotes ([4]; L. amazonensis promastigotes, previously published): inactive against the two evolutionary forms; IC50 [4, 6]: > 10 µM; IC50 Amastigotes ([5]; L. amazonensis axenic amastigotes, previously published): inactive against the two evolutionary forms; IC50 [5, 7]: > 10000 nM
COc1cccc2[nH]cc(/C=N/c3[se]c4c(c3C#N)CCCC4)c12 [Compound 39] | < 3.5 | – | IC50 [1]: 2.15 µM; CC50 at 48 h [3]: 178 µM
NC(=O)c1c(N)sc2c1CCCCCC2 [Compound 8] | ≥ 10 | > 10 | IC50 [1]: > 10 µM
CC(C)(C)C1CCc2c(sc(/N=C/c3c[nH]c4ccc(Br)cc34)c2C#N)C1 (centres unmarked) [Compound 29] | > 10 | > 10 | –
N#Cc1c(N)sc2c1CCCC2 [Compound 5] | – | – | IC50 [4, 6]: > 10 µM
CC(C)(C)OC(=O)N1CCc2c(sc(/N=C/c3c[nH]c4ccc(Br)cc34)c2C#N)C1 [Compound 31] | > 10 | > 10 | –
Meglumine antimoniate [reference compound] | – | – | IC50 [1]: 70.3 µM and 58.9 µM and 67.9 µM; IC50 ([4]; L. amazonensis, read-out: IC50 against promastigotes): 70.3 µM; IC50 ([5]; L. amazonensis, read-out: IC50 against axenic amastigotes): 2770 nM
CC(C)(C)OC(=O)c1c(N)sc2c1CCN(C(=O)OC(C)(C)C)C2 [Compound 22] | 6.52 | 8.35 | CC50 at 48 h [3]: 195 µM
Cc1cc(C#N)c(/N=C/c2c[nH]c3ccc(Br)cc23)s1 [Compound 24] | > 10 | > 10 | –
Cc1ccc2[nH]cc(/C=N/c3[se]c4c(c3C#N)CCCC4)c2c1 [Compound 35] | > 10 | – | IC50 Promastigotes [1]: not active up to the highest concentration evaluated
Cc1cc(C#N)c(N)s1 [Compound 1] | > 10 | > 10 | –
N#Cc1c(N)sc2c1CCN(Cc1ccccc1)C2 [Compound 18] | > 10 | > 10 | IC50 Promastigotes [1]: inactive compound
Cc1ccc2[nH]cc(/C=N/c3sc4c(c3C#N)CCCC4)c2c1 [TN6-1, reference compound] | – | – | IC50 [4, 8]: 7.2 µM
CCCC1CCc2c(sc(N)c2C#N)C1 (centres unmarked) [Compound 15] | < 10 | < 10 | IC50 [1]: 9.2 µM; IC50 [2]: 9.3 µM
N#Cc1c(/N=C/c2c[nH]c3ccc(Br)cc23)[se]c2c1CCCC2 [Compound 38] | < 3.5 | – | IC50 [1]: 3.49 µM; CC50 at 48 h [3]: 239 µM
N#Cc1c(N)sc2c1CCNC2 [Compound 23] | > 10 | > 10 | –
N#Cc1c(/N=C/c2c[nH]c3ccccc23)sc2c1CCCCC2 [TN7, reference compound] | – | – | IC50 [4, 8]: 10 µM
N#Cc1c(/N=C/c2c[nH]c3ccc(Br)cc23)sc2c1CCCCCC2 [Compound 8CN83] | – | – | IC50 [4, 6]: 4.7 µM and 4.75 µM; IC50 [5, 7]: 3800 nM; CC50 (RAW 264.7 macrophages): > 100 µM
CC(C)(C)OC(=O)N1CCc2c(sc(N)c2C#N)C1 [Compound 17, 2-Amino-6-N-Boc-Piperidine[b]Thiophene-3-Carbonitrile] | 8.61 | > 10 | –
CCC1CCc2c(sc(N)c2C#N)C1 (centres unmarked) [Compound 14] | > 10 | > 10 | –
N#Cc1c(N)sc2c1CCCCC2 [Compound 7CN] | – | – | IC50 [4, 6]: 3.2 µM and 3.14 µM; IC50 [5, 7]: 2700 nM and 2790 nM; CC50 (RAW 264.7 macrophages): 99.5 µM
